Data taken from patent US10961234B2, “Oxazole derivatives for use in the treatment of cancer” (LIFEARC, priority 2016, dated 2021).

Legend:
[1] = target: T1, WT full length PAICS (Homo sapiens, UniProt P22234); test: Biochemical assay to measure PAICS activity (Transcreener ADP2 FI, SAICAR synthetase reaction); conditions: PAICS 2.5 nM, 30 mins pre-incubation, ADP detection by fluorescence intensity
T1 construct: 5 μl WT full length PAICS (final assay concentration, fac, 2.5 nM) in basic buffer
T1 sequence (P22234 1-425): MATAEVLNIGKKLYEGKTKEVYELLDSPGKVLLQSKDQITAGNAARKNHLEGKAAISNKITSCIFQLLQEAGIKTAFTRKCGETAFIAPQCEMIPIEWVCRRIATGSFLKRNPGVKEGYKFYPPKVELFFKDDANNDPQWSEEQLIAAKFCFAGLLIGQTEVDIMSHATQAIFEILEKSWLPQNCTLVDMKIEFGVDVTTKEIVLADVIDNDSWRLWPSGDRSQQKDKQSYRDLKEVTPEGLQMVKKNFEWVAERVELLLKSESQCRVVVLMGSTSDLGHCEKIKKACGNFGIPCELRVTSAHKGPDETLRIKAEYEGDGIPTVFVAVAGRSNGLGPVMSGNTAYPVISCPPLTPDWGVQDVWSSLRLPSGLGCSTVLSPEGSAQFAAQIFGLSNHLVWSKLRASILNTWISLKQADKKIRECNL
Description: The biochemical assay was used to measure PAICS SAICAR synthetase-mediated conversion of CAIR, aspartic acid and ATP to SAICAR, ADP and inorganic phosphate (PI), post-AIR/CAIR equilibration (see FIG. 3). This was achieved by detecting the ADP generated during the reaction, using Bellbrook Lab's Transcreener ADP^2 FI assay. An increase in the fluorescence intensity is directly proportional to the amount of PAICS activity.
The Transcreener ADP^2 FI assay is a homogeneous competitive displacement fluorescence intensity assay which uses direct immunodetection of ADP. Displacement of the tracer by ADP causes an increase in the fluorescence at excitation 590 nm and emission 617 nm (FIG. 3).
5 μl WT full length PAICS (final assay concentration, fac, 2.5 nM) in basic buffer, added to black, non-binding, 384-well plates (Corning #3575), columns 1 to 22.5 μl basic buffer was added to columns 23+24 (negative control). PAICS stock at 31.9 μM from the PI's lab (Steve Firestine). Basic buffer contained 50 mM Tris-HCl pH8 and 0.5 mM EDTA, fac.
1 μl compound in 100% DMSO added per well, or 1 μl 100% DMSO to positive controls (columns 1+2) and negative controls (columns 23+24). Final assay top concentration of compound either 1 mM or 30 μM, serially diluted with half-log dilutions across the plate in duplicate (one 10-point concentration response curve across wells 3 to 12, another across 13 to 22). Compounds pre-incubated with PAICS enzyme for 30 mins at RT.
2 μl CAIR added (fac 10 μM) in basic buffer plus 25 mM MgCl2 and 50 mM KHCO3 fac to all wells. CAIR stock 50 mM from Steve Firestine's lab. 1 hr RT incubation for AIR-CAIR equilibration. NB: ˜50% CAIR is decarboxylated during equilibration therefore 5 μM remains for the synthetase reaction.
2 μl ATP/aspartic acid added (fac 30 μM/180 μM) in reaction buffer to all wells. 30 mins RT incubation for appropriate level of ATP turnover. Reaction buffer contained basic buffer plus 10 mM DTT, 0.01% BSA and 0.01% Brij 35, fac.
10 μl ADP detection reagent added to all wells (as per instructions, Transcreener ADP^2 FI kit, BellBrook Labs #3013-10K). Incubation for 1 h at RT to allow antibody equilibration. Fluorescence intensity determined using a Tecan Safire2 (excitation at 590 nm, emission at 617 nm).

[2] = test system: LM2 and MDA-MB-231 breast cancer cell lines; test: PAICS 2D cell proliferation assay; format: cell-based; conditions: Homo sapiens; 72 hours incubation; cell line (LM2 or MDA-MB-231) not given
Procedure: Frozen cryovial stocks of LM2 and MDA-MB-231 breast cancer cell lines were thawed and cultured in 4.5 g/L glucose DMEM (31966-047, Invitrogen) supplemented with 10% Fetal Bovine Serum (10500-064, Invitrogen) until confluent in a T175 flask. Cells were incubated at 37° C. with 5% CO2 in a humidified incubator.
Cells were collected from T175 flasks by washing with PBS (10010-056, Invitrogen) and dissociated using Accutase (A6964, Sigma Aldrich). This was followed by centrifuging (1200 rpm, 5 min) and resuspending the cells in 10 ml of media containing 1% penicillin/streptomycin (15140-122, Invitrogen). Cells were counted by trypan blue exclusion method using an automated cell counter (Cellometer) and diluted to a concentration of 40,000/ml. 1000 cells were then seeded into 384-well white-walled plates (Corning, 3707) in a volume of 25 μl. Plates were incubated overnight at 37° C. with 5% CO2.
After 24 hours, PAICS compounds were added onto the assay plates using an HP D300 Digital Dispenser (Hewlett Packard). 10 mM stocks were used and dispensed as a 10 point concentration response curve (CRC) ½ log dilution series with a final top concentration of 100 μM. Controls were added onto each plate: positive controls included Staurosporine CRC (100 μM stock dispensed as a 10 point CRC ½ log dilution series with a final top concentration of 1 μM) and PAICS compound MRT00211919 (10 mM stock dispensed as a 10 point CRC ½ log dilution series with a final top concentration of 100 μM); a high control of Staurosporine (0.1 μM (LM2), 0.316 μM (MDA-MB-231) FAC) and a low control of media containing 1% DMSO. A final concentration of 1% DMSO was then added across the plates for normalisation. Following compound addition, assay plates were incubated for 72 hours at 37° C. with 5% CO2.
After 72 h incubation, dead and viable cells were measured in each assay plate. Cytotoxicity was assessed through fluorescent DNA staining using the CellTox™ Green Cytotoxicity Assay kit (G8743, Promega) following the manufacturer's multiplexing protocol. Impaired cell membrane integrity results in the access of dye to stain DNA allowing quantification of dead cells. Cell viability was determined following ATP quantification using the CellTiter-Glo® Luminescent Cell Viability Assay kit (G7572, Promega) following the manufacturer's protocol. ATP released from lysed cells allowed for the generation of a signal proportional to the number of cells present in the well. All endpoint reads were performed using the PheraSTAR Plus (BMG Labtech). Data is expressed as % viable cells and % dead cells against controls (mean±SEM of duplicate curves).

CN1CCN(Cc2ccc(-c3ccc(Cl)c(NC(=O)c4coc(N)n4)c3)cn2)CC1 [Example 83, 2-Amino-N-(2-chloro-5-{6-[(4-methylpiperazin-1-yl)methyl]pyridin-3-yl}phenyl)-1,3-oxazole-4-carboxamide]
IC50 [1]: 25 to 100 nM | EC50 [2]: 250 to 500 nM

CN1CC(n2cc(-c3ccc(Cl)c(NC(=O)c4coc(N)n4)c3)cn2)C1 [Example 45, 2-Amino-N-{2-chloro-5-[1-(1-methylazetidin-3-yl)-1H-pyrazol-4-yl]phenyl}-1,3-oxazole-4-carboxamide]
IC50 [1]: > 100 nM | EC50 [2]: 100 to 250 nM

Nc1nc(C(=O)Nc2cc(-c3ccc(CN4CCNCC4)cc3)ccc2Cl)co1 [Example 38, 2-Amino-N-[4-chloro-4′-(piperazin-1-ylmethyl)biphenyl-3-yl]-1,3-oxazole-4-carboxamide]
IC50 [1]: 10 to 25 nM | EC50 [2]: 250 to 500 nM

Nc1nc(C(=O)Nc2cc(-c3ccn(C4CCNCC4)n3)ccc2Cl)co1 [Example 54, 2-amino-N-{2-chloro-5-[1-(piperidin-4-yl)-1H-pyrazol-3-yl]phenyl}-1,3-oxazole-4-carboxamide]
IC50 [1]: 10 to 25 nM | EC50 [2]: 250 to 500 nM

CN1CCC(NCc2ccc(-c3ccc(Cl)c(NC(=O)c4coc(N)n4)c3)cn2)CC1 [Example 78, 2-Amino-N-[2-chloro-5-(6-{[(1-methylpiperidin-4-yl)amino]methyl}pyridin-3-yl)phenyl]-1,3-oxazole-4-carboxamide]
IC50 [1]: 10 to 25 nM | EC50 [2]: 100 to 250 nM

Nc1nc(C(=O)Nc2cc(-c3cnn(CCCN4CCNCC4)c3)ccc2Cl)co1 [Example 51, 2-Amino-N-(2-chloro-5-(1-(3-(piperazin-1-yl)propyl)-1H-pyrazol-4-yl)phenyl)oxazole-4-carboxamide]
IC50 [1]: < 10 nM | EC50 [2]: 100 to 250 nM

Nc1nc(C(=O)Nc2cc(-c3ccc(CN4CCNCC4)nc3)ccc2Cl)co1 [Example 76, 2-Amino-N-{2-chloro-5-[6-(piperazin-1-ylmethyl)pyridin-3-yl]phenyl}-1,3-oxazole-4-carboxamide]
IC50 [1]: 25 to 100 nM | EC50 [2]: 250 to 500 nM

Nc1nc(C(=O)Nc2cc(-c3cnn(C4CCCNC4)c3)ccc2Cl)co1 (stereo not shown) [Example 42, 2-Amino-N-{2-chloro-5-[1-(piperidin-3-yl)-1H-pyrazol-4-yl]phenyl}-1,3-oxazole-4-carboxamide]
IC50 [1]: > 100 nM | EC50 [2]: 100 to 250 nM

CN(C)CCC(=O)N1CC(Cn2cc(-c3ccc(Cl)c(NC(=O)c4coc(N)n4)c3)cn2)C1 [Example 65, 2-Amino-N-[2-chloro-5-{1-([1-(N,N-dimethyl-beta-alanyl)azetidin-3-yl]methyl}-1H-pyrazol-4-yl)phenyl]-1,3-oxazole-4-carboxamide]
IC50 [1]: 25 to 100 nM | EC50 [2]: 250 to 500 nM

Nc1nc(C(=O)Nc2cc(-c3nc(CN4CCNCC4)cs3)ccc2Cl)co1 [Example 89, 2-Amino-N-{2-chloro-5-[4-(piperazin-1-ylmethyl)-1,3-thiazol-2-yl]phenyl}-1,3-oxazole-4-carboxamide]
IC50 [1]: < 10 nM | EC50 [2]: < 100 nM

CN(C)CCOc1ccc(-c2ccc(Cl)c(NC(=O)c3coc(N)n3)c2)cn1 [Example 73, 2-Amino-N-(2-chloro-5-(6-(2-(dimethylamino)ethoxy)pyridin-3-yl)phenyl)oxazole-4-carboxamide]
IC50 [1]: 25 to 100 nM | EC50 [2]: 250 to 500 nM

Nc1nc(C(=O)Nc2cc(-c3cnn(CCN4CCNCC4)c3)ccc2Cl)co1 [Example 81, 2-Amino-N-(2-chloro-5-{1-[2-(piperazin-1-yl)ethyl]-1H-pyrazol-4-yl}phenyl)-1,3-oxazole-4-carboxamide]
IC50 [1]: 25 to 100 nM | EC50 [2]: 250 to 500 nM

CN(C)CC(=O)N1CCC(n2cc(-c3ccc(Cl)c(NC(=O)c4coc(N)n4)c3)cn2)CC1 [Example 62, 2-Amino-N-(2-chloro-5-{1-[1-(N,N-dimethylglycyl)piperidin-4-yl]-1H-pyrazol-4-yl}phenyl)-1,3-oxazole-4-carboxamide]
IC50 [1]: > 100 nM | EC50 [2]: 100 to 250 nM

CN1CCN(CCn2cc(-c3ccc(Cl)c(NC(=O)c4coc(N)n4)c3)cn2)CC1 [Example 57, 2-Amino-N-(2-chloro-5-(1-(2-(4-methylpiperazin-1-yl)ethyl)-1H-pyrazol-4-yl)phenyl)oxazole-4-carboxamide]
IC50 [1]: 25 to 100 nM | EC50 [2]: 250 to 500 nM

CN(C)CCCn1cc(-c2ccc(Cl)c(NC(=O)c3coc(N)n3)c2)cn1 [Example 43, 2-Amino-N-(2-chloro-5-{1-[3-(dimethylamino)propyl]-1H-pyrazol-4-yl}phenyl)-1,3-oxazole-4-carboxamide]
IC50 [1]: 25 to 100 nM | EC50 [2]: 100 to 250 nM

CCNCCn1cc(-c2ccc(Cl)c(NC(=O)c3coc(N)n3)c2)cn1 [Example 56, 2-Amino-N-(2-chloro-5-(1-(2-(ethylamino)ethyl)-1H-pyrazol-4-yl)phenyl)oxazole-4-carboxamide]
IC50 [1]: 10 to 25 nM | EC50 [2]: 100 to 250 nM

Nc1nc(C(=O)Nc2cc(-c3cnc(CN4CCNCC4)s3)ccc2Cl)co1 [Example 90, 2-Amino-N-{2-chloro-5-[2-(piperazin-1-ylmethyl)-1,3-thiazol-5-yl]phenyl}-1,3-oxazole-4-carboxamide]
IC50 [1]: 10 to 25 nM | EC50 [2]: 100 to 250 nM

Nc1nc(C(=O)Nc2cc(-c3ccc(OC4CCNCC4)nc3)ccc2Cl)co1 [Example 84, 2-Amino-N-{2-chloro-5-[6-(piperidin-4-yloxy)pyridin-3-yl]phenyl}-1,3-oxazole-4-carboxamide]
IC50 [1]: 10 to 25 nM | EC50 [2]: 250 to 500 nM

CN1CCC(NC(=O)Cn2cc(-c3ccc(Cl)c(NC(=O)c4coc(N)n4)c3)cn2)CC1 [Example 61, 2-Amino-N-[2-chloro-5-(1-{2-[(1-methylpiperidin-4-yl)amino]-2-oxoethyl}-1H-pyrazol-4-yl)phenyl]-1,3-oxazole-4-carboxamide]
IC50 [1]: 25 to 100 nM | EC50 [2]: 250 to 500 nM

CN1CCN(CCCn2cc(-c3ccc(Cl)c(NC(=O)c4coc(N)n4)c3)cn2)CC1 [Example 52, 2-Amino-N-(2-chloro-5-(1-(3-(4-methylpiperazin-1-yl)propyl)-1H-pyrazol-4-yl)phenyl)oxazole-4-carboxamide]
IC50 [1]: 10 to 25 nM | EC50 [2]: 100 to 250 nM
